The source of these data is patent publication US20240091366A1, “NOVEL ACID-SENSITIVE APTAMER TRIPTOLIDE CONJUGATE AND APPLICATIONS” (priority 2022, published 2024).

The nature of series [1]: MTT assay, cytotoxicity on normal cells. The format is cell-based, human. Particulars: 48 h. The procedure:
The same materials as those in Part II above are not repeated here, in addition to the following: human normal hepatocytes LO2, human embryonic kidney cells HEK293 were purchased from the Shanghai Cell Bank of the Chinese Academy of Sciences and preserved in our laboratory.
Take the […] LO2 and HEK293 cell lines from the liquid nitrogen tank, place them in a 37° C. water bath, wait for the frozen cells to melt into cell suspension, centrifuge the cells at 1000 r/min for 3 min, discard the supernatant, add 1 ml of fresh complete medium containing 10% fetal bovine serum and 1% double antibody to mix the cells, then add 5 ml of medium, gently and repeatedly blowing the cells with a pipette gun to make them mix well. Then add 5 ml of medium, blow the cells gently and repeatedly with a pipette gun to mix them well, and finally transfer the cell suspension to a […] and label the cell name, cell number, date of resuscitation and the operator's name, and place it in a cell culture incubator for cultivation. (HEK293 cell line was cultured with DMEM medium, LO2 cell line was cultured with RPMI1640 medium)
Take LO2 and HEK293 cells with good growth status, remove the medium, add 1 ml of sterile PBS to wash, add 1.5 ml of trypsin to digest the cells, about 2 min later the cells become round and fall off, add 1.5 ml of medium to terminate the digestion, transfer it to centrifugal tube, centrifuge at 1000 r/min for 3 min, discard the supernatant, add 1 ml of fresh medium to resuspend, then add fresh medium for 1:3 distribution to other culture dishes, and label the date of transmission and the number of generations. Place in the cell culture incubator for cultivation.
Take LO2 and HEK293 cells with good growth status, by the same operation as the cell passaging experiment, after cell resuspension, cell counting with hemocyte counting plate, with 3000 cells/well, plant in 96-well plate, after 24 h of cell culture, remove the original medium, add medium containing different concentrations of drugs and continue to cultivate for 48 hours. After 24 h of cell culture, the original medium was removed and the medium containing different concentrations of drugs was added to continue the culture for 48 hours. […] The above steps were repeated three times.
A general note: Formazan colour is commonly taken as a measure of viable cells.

Another series deals with tumor cells. Particulars: background art; cited from earlier work.
The conditions of series [2]: background art; cited from earlier work.

Each structure is given as a SMILES string.

For `CC(C)[C@]12O[C@H]1[C@@H]1O[C@]13[C@]1(O[C@H]1C[C@H]1C4=C(CC[C@@]13C)C(=O)OC4)[C@@H]2O` [TP, Triptolide], the IC50 – broadly, the point on the concentration scale where inhibition reaches its midpoint – at 48 h in series [1] (human, LO2 normal hepatocyte cells, normal hepatocytes LO2, MTT) was determined as 9.01 ± 0.25 nM; in series [1] (normal human embryonic kidney cells HEK293, MTT) it was 5.98 ± 0.21 nM. Also, in the series on tumor cells, the “concentration effectively inhibiting the proliferation of tumor cells” value is 2 to 10 ng/mL. Besides, the solubility in water entry in series [2] is given as “insoluble in water”.
